Data: patent US20150352108A1, “AMINO-PYRIMIDINE COMPOUNDS AS INHIBITORS OF TBK1 AND/OR IKK EPSILON” (Alzheimer's Institute of America, priority 2009, published 2015)

Assays:
[1] = system: IKKε-mediated phosphorylation of IRF3; test: In-situ phosphorylation of IRF3 (pIRF3 Ser396 ELISA) in HEK293T cells cotransfected with IRF3 and IKKε; type: cell-based; conditions: Homo sapiens, HEK-293T; HEK293T cells, 20 hours, text bins; read-out: IC50 for inhibition of the in-situ IKKε-mediated phosphorylation of IRF3
Method: HEK293T cells were cotransfected in a 10-cm dish with IRF3 and IKKε expression plasmids using Lipofectamine 2000 (Invitrogen, Carlsbad, Calif.). The following day, cells were replated at 20,000 per well in 96-well plates and treated with test compounds (compounds according to Formula I) for 20 hours. Cell lysates were prepared and analyzed using an ELISA for phospho-Ser396 (anti-IRF3 capture antibody, Santa Cruz Biotechnology, Inc., Santa Cruz, Calif.; anti-p-Ser396 IRF3 detection antibody, Cell Signaling, Danvers, Mass.). pIRF3 levels in compound treated cells were normalized to DMSO treated cells (no compound). Cell viability was assayed in a parallel set of plates to monitor cytotoxic effects of the test compounds (CellTiter-Glo, Promega, Inc., Madison, Wis.). TBK1 activity was tested by Western blotting using a phospho-specific IRF7 antibody. Similar to above, HEK293T cells were transfected with IRF7 and TBK1 expression plasmids. Cells were seeded in 12-well plates at 150,000 per well and treated overnight with test compounds. Protein lysates were prepared and processed for Western blotting followed by detection using a phosphor-Ser477/Ser479 IRF7 antibody (BD Biosciences, San Jose, Calif.)

[2] = biological target: T1, IKKε (Homo sapiens, UniProt Q14164); test: In-vitro IKKε kinase assay ([γ33]ATP filter-plate); type: biochemical; conditions: text bins; read-out: IC50 for inhibition of the kinase activity of IKKε
T1 construct: His-tag; made in house; host or cells: Sf9 insect cells
T1 sequence (Q14164 1-716): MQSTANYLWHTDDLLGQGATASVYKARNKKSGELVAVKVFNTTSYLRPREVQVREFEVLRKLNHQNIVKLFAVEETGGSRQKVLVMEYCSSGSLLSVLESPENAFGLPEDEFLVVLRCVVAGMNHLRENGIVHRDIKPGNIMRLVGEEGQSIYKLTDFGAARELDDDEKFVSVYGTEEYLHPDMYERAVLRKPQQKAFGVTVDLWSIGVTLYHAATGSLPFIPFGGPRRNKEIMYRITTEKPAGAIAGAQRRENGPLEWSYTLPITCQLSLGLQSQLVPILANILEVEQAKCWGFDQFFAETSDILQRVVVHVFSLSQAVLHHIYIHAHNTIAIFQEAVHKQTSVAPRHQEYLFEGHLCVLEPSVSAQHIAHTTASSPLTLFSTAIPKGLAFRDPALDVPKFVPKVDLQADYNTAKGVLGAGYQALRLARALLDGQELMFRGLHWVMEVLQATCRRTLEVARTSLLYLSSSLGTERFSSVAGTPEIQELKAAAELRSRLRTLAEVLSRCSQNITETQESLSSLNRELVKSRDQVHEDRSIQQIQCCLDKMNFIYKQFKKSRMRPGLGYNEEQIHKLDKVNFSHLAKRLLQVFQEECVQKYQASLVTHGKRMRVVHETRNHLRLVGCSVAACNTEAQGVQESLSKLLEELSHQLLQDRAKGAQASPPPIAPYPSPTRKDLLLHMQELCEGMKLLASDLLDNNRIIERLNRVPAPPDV
How it was run: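 Phosphorylation of casein or myelin basic protein was counted by P-81 filter capture after 30-45 min reactions stopped with phosphoric acid, with counts normalized to DMSO after background subtraction. ATP was twice Km: 60 μM for TBK1 and 32 μM for IKKε, plus [γ33]ATP. Sf9-expressed His-tag enzymes were used at normal/sensitized levels of 0.1/0.02 μg/ml (TBK1) and 0.1/0.015 μg/ml (IKKε).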

| SMILES | IC50 [1] [nM] | IC50 [2] [nM] |
| --- | --- | --- |
| COC1CN(Cc2ccc(Nc3nccc(-c4ccc(O[C@@H]5CCN(C(=O)CO)C5)c(C#N)c4)n3)cc2)C1 [compound 658, 2-{[(3R)-1-(Hydroxyacetyl)pyrrolidin-3-yl]oxy}-5-[2-({4-[(3-methoxyazetidin-1-yl)methyl]phenyl}amino)pyrimidin-4-yl]benzonitrile] | 250 to 500 | < 5 |
| N#Cc1cc(-c2ccnc(Nc3ccc(S(N)(=O)=O)cc3)n2)ccc1OC1CCOCC1 [compound 564, 4-({4-[3-Cyano-4-(tetrahydro-2H-pyran-4-yloxy)phenyl]pyrimidin-2-yl}amino) benzenesulfonamide] | 100 to 250 | < 5 |
| N#Cc1cc(-c2ccnc(Nc3cccc(CN4CCOCC4)c3)n2)ccc1OC1CCOCC1 [compound 638, 5-(2-{[3-(Morpholin-4-ylmethyl)phenyl]amino}pyrimidin-4-yl)-2-(tetrahydro-2H-pyran-4-yloxy)benzonitrile] | < 100 | < 5 |
| N#Cc1cc(-c2ccnc(Nc3ccc(F)c(OC4CCNC4)c3)n2)ccc1OC1CCOCC1 (stereo not drawn) [compound 541, 5-(2-{[4-Fluoro-3-(pyrrolidin-3-yloxy)phenyl]amino}pyrimidin-4-yl)-2-(tetrahydro-2H-pyran-4-yloxy)benzonitrile] | 100 to 250 | < 5 |
| CN(C)C1CCN(C(=O)Nc2cccc(Nc3nccc(-c4ccc(OC5CCOCC5)c(C#N)c4)n3)c2)C1 (stereo not drawn) [compound 667, N-[3-({4-[3-Cyano-4-(tetrahydro-2H-pyran-4-yloxy)phenyl]pyrimidin-2-yl}amino)phenyl]-3-(dimethylamino) pyrrolidine-1-carboxamide] | < 100 | < 5 |
| CC(=O)Nc1cccc(Nc2nccc(-c3ccc(OC4CCOCC4)c(C#N)c3)n2)c1 [compound 656, N-[3-({4-[3-Cyano-4-(tetrahydro-2H-pyran-4-yloxy)phenyl]pyrimidin-2-yl}amino)phenyl] acetamide] | < 100 | < 5 |
| CC(C)(O)C(=O)Nc1cccc(Nc2nccc(-c3ccc(OC4CCOCC4)c(C#N)c3)n2)c1 [compound 563, N-[3-({4-[3-Cyano-4-(tetrahydro-2H-pyran-4-yloxy)phentyl]pyrimidin-2-yl}amino)phenyl]-2-hydroxy-2-methylpropanamide] | 100 to 250 | < 5 |
| CN(C)CCN(C)c1cccc(Nc2nccc(-c3ccc(OC4CCOCC4)c(C#N)c3)n2)c1 [compound 661] | < 100 | < 5 |
| CN(C)C1CCN(c2cccc(Nc3nccc(-c4ccc(OC5CCOCC5)c(C#N)c4)n3)c2)C1 (stereo not drawn) [compound 591, 5-[2-({3-[3-(Dimethylamino)pyrrolidin-1-yl]phenyl}amino)pyrimidin-4-yl]-2-(tetrahydro-2H-pyran-4-yloxy)benzonitrile] | 100 to 250 | < 5 |
| C[C@@H](O)C(=O)Nc1cccc(Nc2nccc(-c3ccc(OC4CCOCC4)c(C#N)c3)n2)c1 [compound 659, (2R)-N-[3-({4-[3-Cyano-4-(tetrahydro-2H-pyran-4-yloxy)phenyl]pyrimidin-2-yl}amino)phenyl]-2-hydroxypropanamide] | 100 to 250 | < 5 |
| COc1cc(Nc2nccc(-c3ccc(OCC4CC4)c(C#N)c3)n2)ccc1CN1CC(OC)C1 [compound 617, 2-(Cyclopropylmethoxy)-5-[2-({3-methoxy-4-[(3-methoxyazetidin-1-yl)methyl]phenyl}amino)pyrimidin-4-yl]benzonitrile] | 100 to 250 | < 5 |
| Cn1ccc(C(=O)Nc2cccc(Nc3nccc(-c4ccc(OC5CCOCC5)c(C#N)c4)n3)c2)n1 [compound 547, N-[3-({4-[3-Cyano-4-(tetrahydro-2H-pyran-4-yloxy)phenyl]pyrimidin-2-yl}amino)phenyl]-1-methyl-1H-pyrazole-3-carboxamide] | 100 to 250 | < 5 |
| N#Cc1cc(-c2ccnc(Nc3ccc(Cn4cncn4)cc3)n2)ccc1OC1CCOCC1 [compound 624, 2-(Tetrahydro-2H-pyran-4-yloxy)-5-(2-{[4-(1H-1,2,4-triazol-1-ylmethyl)phenyl]amino}pyrimidin-4-yl)benzonitrile] | < 100 | < 5 |
| N#Cc1cc(-c2nc(Nc3ccc(N4CCOCC4)cc3)ncc2F)ccc1OC1CCOCC1 [compound 592, 5-(5-Fluoro-2-{[4-(morpholin-4-yl)phenyl]amino}pyrimidin-4-yl)-2-(tetrahydro-2H-pyran-4-yloxy)benzonitrile] | < 100 | < 5 |
| Cc1cn(Cc2cccc(Nc3nccc(-c4ccc(O[C@@H]5CCN(C(=O)CO)C5)c(C#N)c4)n3)c2)cn1 [compound 662, 2-{[(3R)-1-(Hydroxyacetyl)pyrrolidin-3-yl]oxy}-5-[2-({3-[(4-methyl-1H-imidazol-1-yl)methyl]phenyl}amino)pyrimidin-4-yl]benzonitrile] | < 100 | < 5 |
| N#Cc1cc(-c2ccnc(Nc3ccc(/C=C/CN4CCOCC4)cc3)n2)ccc1OC1CCOCC1 [compound 614, 5-[2-({4-[(1E)-3-(Morpholin-4-yl)prop-1-en-1-yl]phenyl}amino)pyrimidin-4-yl]-2-(tetrahydro-2H-pyran-4-yloxy)benzonitrile] | 250 to 500 | < 5 |
| Cc1cn(Cc2cccc(Nc3nccc(-c4ccc(OC5CCOCC5)c(C#N)c4)n3)c2)cn1 [compound 653, 5-[2-({3-[(4-Methyl-1H-imidazol-1-yl)methyl]phenyl}amino)pyrimidin-4-yl]-2-(tetrahydro-2H-pyran-4-yloxy)benzonitrile] | < 100 | < 5 |
| C[C@H](O)C(=O)N1CCC(Oc2ccc(-c3ccnc(Nc4ccc(F)c(OCCN)c4)n3)cc2C#N)CC1 [compound 655] | 250 to 500 | < 5 |
| N#Cc1cc(-c2ccnc(Nc3ccc(F)c(OC4CCNC4)c3)n2)ccc1OCC1CC1 (stereo not drawn) [compound 670, 2-(Cyclopropyl-methoxy)-5-(2-{[4-fluoro-3-(pyrrolidin-3-yloxy)phenyl]amino}pyrimidin-4-yl)benzonitrile] | 250 to 500 | < 5 |
| N#Cc1cc(-c2ccnc(Nc3ccc(N4CCN(CCO)CC4)cc3)n2)ccc1OC1CCOCC1 [compound 512, 5-[2-({4-[4-(2-hydroxyethyl)piperazin-1-yl]phenyl}amino)pyrimidin-4-yl]-2-(tetrahydro-2H-pyran-4-yloxy)benzonitrile] | < 100 | < 5 |
| CC(C)COc1ccc(-c2ccnc(Nc3ccc(N4CCN(CCO)CC4)cc3)n2)cc1C#N [compound 442, 5-[2-({4-[4-(2-Hydroxyethyl)piperazin-1-yl]phenyl}amino)pyrimidin-4-yl]-2-(2-methylpropoxy) benzonitrile] | < 100 | < 5 |
| COc1cc(Nc2nccc(-c3ccc(OC4CCOCC4)c(C#N)c3)n2)ccc1-n1cnnn1 [compound 664, 5-(2-{[3-Methoxy-4-(1H-tetrazol-1-yl)phenyl]amino}pyrimidin-4-yl)-2-(tetrahydro-2H-pyran-4-yloxy)benzonitrile] | < 100 | < 5 |
| COCC(=O)Nc1cccc(Nc2nccc(-c3ccc(OC4CCOCC4)c(C#N)c3)n2)c1 [compound 647, N-[3-({4-[3-Cyano-4-(tetrahydro-2H-pyran-4-yloxy)phenyl]pyrimidin-2-yl}amino)phenyl]-2-methoxyacetamide] | < 100 | < 5 |
| N#Cc1cc(-c2ccnc(Nc3ccc(S(=O)(=O)Nc4ccccn4)cc3)n2)ccc1OC1CCOCC1 [compound 593, 4-({4-[3-Cyano-4-(tetrahydro-2H-pyran-4-yloxy)phenyl]pyrimidin-2-yl}amino)-N-(pyridin-2-yl) benzenesulfonamide] | < 100 | < 5 |
